From ChEMBL document CHEMBL1944630, “Indomethacin Analogues that Enhance Doxorubicin Cytotoxicity in Multidrug Resistant Cells without Cox Inhibitory Activity” (ACS Med Chem Lett, 2011)
Active and inactive are the calls of the source. The rule behind the calls is not given here.

Columns and labels:
[1] = test system: T98G; experiment: Cytotoxicity against multidrug-resistant human T98G cells expressing MRP-1 at 50 uM after 3 days by crystal violet staining analysis; type: cell-based; conditions: 72 h
[2] = target: T1, Prostaglandin G/H synthase 1 (Homo sapiens, UniProt P23219); experiment: Inhibition of COX1
T1 sequence (P23219 whole entry): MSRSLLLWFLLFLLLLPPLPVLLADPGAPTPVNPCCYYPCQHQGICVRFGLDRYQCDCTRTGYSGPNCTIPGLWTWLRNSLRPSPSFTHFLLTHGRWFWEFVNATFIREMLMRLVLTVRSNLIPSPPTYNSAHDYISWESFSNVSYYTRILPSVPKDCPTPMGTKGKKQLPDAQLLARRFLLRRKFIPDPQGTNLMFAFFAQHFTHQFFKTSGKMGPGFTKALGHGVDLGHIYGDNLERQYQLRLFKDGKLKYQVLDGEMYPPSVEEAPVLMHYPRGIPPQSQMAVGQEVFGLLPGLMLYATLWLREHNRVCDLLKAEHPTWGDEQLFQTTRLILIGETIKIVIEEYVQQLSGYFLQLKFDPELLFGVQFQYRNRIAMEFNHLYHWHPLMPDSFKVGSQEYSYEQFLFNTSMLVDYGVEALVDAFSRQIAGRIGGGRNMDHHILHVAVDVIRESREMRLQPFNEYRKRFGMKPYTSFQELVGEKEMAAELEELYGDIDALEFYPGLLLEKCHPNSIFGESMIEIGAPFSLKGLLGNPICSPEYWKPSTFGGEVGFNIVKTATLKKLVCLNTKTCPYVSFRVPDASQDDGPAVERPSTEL

[3] = target: T2, Prostaglandin G/H synthase 2 (Homo sapiens, UniProt P35354); experiment: Inhibition of COX2
T2 sequence (P35354 whole entry): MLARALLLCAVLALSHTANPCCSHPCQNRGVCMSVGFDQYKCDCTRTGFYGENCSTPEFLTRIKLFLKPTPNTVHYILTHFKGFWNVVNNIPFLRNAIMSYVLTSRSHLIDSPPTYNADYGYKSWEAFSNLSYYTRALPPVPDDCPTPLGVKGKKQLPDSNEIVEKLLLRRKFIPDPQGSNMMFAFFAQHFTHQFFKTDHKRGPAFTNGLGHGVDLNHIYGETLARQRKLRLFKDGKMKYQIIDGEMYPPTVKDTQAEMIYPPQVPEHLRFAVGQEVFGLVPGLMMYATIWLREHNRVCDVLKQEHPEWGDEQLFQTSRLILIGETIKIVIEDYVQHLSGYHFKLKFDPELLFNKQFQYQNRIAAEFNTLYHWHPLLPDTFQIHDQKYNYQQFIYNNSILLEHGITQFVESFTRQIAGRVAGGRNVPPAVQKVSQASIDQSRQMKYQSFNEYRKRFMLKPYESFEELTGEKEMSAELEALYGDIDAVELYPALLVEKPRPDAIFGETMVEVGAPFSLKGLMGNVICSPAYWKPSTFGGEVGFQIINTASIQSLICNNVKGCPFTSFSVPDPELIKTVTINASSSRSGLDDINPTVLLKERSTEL

[4] = target: T1, Prostaglandin G/H synthase 1; experiment: Inhibition of COX1 at 100 uM
[5] = test system: T98G; experiment: Potentiation of doxorubicin-induced cytotoxicity against multidrug-resistant human T98G cells expressing MRP-1 at 50 uM pretreated for 2 hrs prior addition of doxorubicin measured after 3 days by crystal violet staining analysis; type: functional, cell-based

IC50 [2] [µM] | IC50 [3] [µM] | inhibition [4] [%] | SMILES | Activity [1] | Activity [5]
> 400 | > 400 | < 0 | O=C(O)Cc1c(-c2ccccc2)n(C(=O)c2ccc(Cl)cc2)c2ccccc12 | Non-toxic | Active
0.01 | 39 | 79 | Cc1c(CC(=O)O)c2ccccc2n1C(=O)c1ccc(Cl)cc1 | – | –
> 400 | > 400 | < 0 | CCc1c(CC(=O)O)c2ccccc2n1C(=O)c1ccc(Cl)cc1 | Non-toxic | Active
– | – | 38 | CC(=O)Oc1ccccc1C(=O)O | – | –
